One assay deals with T1, XIAP-BIR3 (Homo sapiens, UniProt P98170).
T1 construct: XIAP-BIR3; purchased Reaction Biology APT-11-374
Description: XIAP-BIR3 fluorescence polarization binding assay. To be noted: FP, probe AbuRPFK-5FAM (SM5F) 5 nM, XIAP-BIR3 40 nM, 60 min at 25° C. From the text:
(§1) IAPs are one main cause of cancer development and may result from overexpression of anti-apoptotic proteins. This protocol establishes three binding assays for […] Bir3 domain, cIAP1 and cIAP2 using FP (fluorescence polariation) technology. The fluorescence probe used is a synthetic peptide conjugated to 5-carboxyfluorescein (AbuRPFK-5FAM). The fluorescence polarization value (mP) was detected by Envision, which was used to reflect the binding degree of protein and fluorescent marker.
(§2) • a. Prepare 100 times of the final cpd concentration in appropriate tube and transfer 5 uL cpd to 45 μL 1× reaction buffer with 10% DMSO • b. The final reference cpd concentration is 10000, 3333.3, 1111.1, 370.4, 123.4, 41.2, 13.7, 4.57, 1.52, 0.51, 0.17 and 0 nM. So the 100 times of the concentration is 1000, 333.3, 111.1, 37.04, 12.34, 4.12, […], 0.15, 0.05, 0.017 and 0 μM. The final test cpds concentration is 3333.3, 1111.1, 370.4, 123.4, 41.2, 13.7, 4.57, 1.52, 0.51, 0.17, 0.057 and 0 nM. So the 100 times of the concentration is 333.3, 111.1, 37.04, 12.34, 4.12, […], 0.15, 0.05, 0.017, 0.0057 and […] • c. Add 8 μL/well each dose enzyme to 384 wen microplate (ProxiPlate-384 F Plus, 6008260) using multichannel pipette, prepared in Table 3. • d. Centrifuge at 1000 rpm • e. Add 2 μL/well cpd to 384 well microplate (ProxiPlate-384 F Plus, 6008260) using multichannel pipette, prepared in step a). • f. Centrifuge at 1000 rpm RT, 15 min. • g Start the assay by adding 10 uL/well substrate (prepared in Table 4) to the same 384 wen microplate using multichannel pipette. • h. Centrifuge at 1000 rpm. • i. Cover the assay plate and incubate for 60 min at 25° C. • j. Read on Envision 2104 for mP and plot the IC50s with mP values. • k. Data analysis: IC50s were determined based on a non-linear regression analysis of data collected.

A further assay has as its target T2, cIAP1-BIR3 (Homo sapiens, UniProt Q13490).
T2 construct: cIAP1-BIR3; purchased Reaction Biology APT-11-370
Description: cIAP1-BIR3 fluorescence polarization binding assay. Conditions: FP, probe AbuRPFK-5FAM (SM5F) 5 nM, cIAP1-BIR3 15 nM, 60 min at 25° C.
Description: as §1, §2
(In general: Polarisation of emitted light reports the rotation of a fluorescent probe.)

Another assay concerns the target T3, cIAP2-BIR3 (Homo sapiens, UniProt Q13489).
T3 construct: cIAP2-BIR3; purchased Reaction Biology APT-11-372
Description: cIAP2-BIR3 fluorescence polarization binding assay. Conditions: FP, probe AbuRPFK-5FAM (SM5F) 5 nM, cIAP2-BIR3 80 nM, 60 min at 25° C.
Description: as §1, §2

The values that follow come from patent US20220220152A1, “BIVALENT ANTAGONISTS OF INHIBITORS OF APOPTOSIS PROTEINS” (Hepagene Therapeutics (HK) Limited, priority 2019, published 2022).

SMILES strings stand for the structures. pIC50: −log10 of the molar value.

T1 sequence (P98170 241-356 limits assumed): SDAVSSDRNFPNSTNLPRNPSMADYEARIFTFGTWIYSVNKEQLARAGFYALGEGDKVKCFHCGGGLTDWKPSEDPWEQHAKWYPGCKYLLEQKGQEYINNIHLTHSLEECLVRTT
T2 sequence (Q13490 253-363 limits assumed): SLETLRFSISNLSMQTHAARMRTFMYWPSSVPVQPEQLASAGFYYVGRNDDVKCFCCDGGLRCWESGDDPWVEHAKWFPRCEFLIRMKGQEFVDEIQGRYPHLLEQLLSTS
T3 sequence (Q13489 238-349 limits assumed): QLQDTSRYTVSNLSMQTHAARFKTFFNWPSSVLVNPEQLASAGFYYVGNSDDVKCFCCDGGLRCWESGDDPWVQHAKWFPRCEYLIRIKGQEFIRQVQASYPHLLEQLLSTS

In general, pIC50 refers to the negative decadic logarithm of the IC50, by convention in mol/L. On to `CN[C@@H](C)C(=O)N[C@H](C(=O)N1CCC[C@H]1C(=O)N[C@@H]1CCOc2c(-c3cccc4c3OCC[C@H]4NC(=O)[C@@H]3CCCN3C(=O)[C@@H](NC(=O)[C@H](C)NC)C(C)C)cccc21)C(C)C` [Compound V-C, (2S)-1-[(2S)-3-methyl-2-[(2S)-2-(methylamino)propanamido]butanoyl]-N-[(4R)-8-[(4R)-4-[(2S)-1-[(2S)-3-methyl-2-[(2S)-2-(methylamino)propanamido]butanoyl]pyrrolidine-2-amido]-3,4-dihydro-2H-1-benzopyran-8-yl]-3,4-dihydro-2H-1-benzopyran-4-yl]pyrrolidine-2-carboxamide], for which the figures for the negative-log IC50 (pIC50) at XIAP-BIR3, on cIAP1-BIR3 and on cIAP2-BIR3 were 7.00 to 8.00, 8.00 to 9.00 and 7.00 to 8.00, respectively.

Turning to `CN[C@@H](C)C(=O)N[C@H](C(=O)N1CCC[C@H]1C(=O)N[C@@H]1CCOc2c(-c3cccc4c3OCC[C@H]4NC(=O)[C@@H]3CCCN3C(=O)[C@@H](NC(=O)[C@H](C)NC)C(C)(C)C)cccc21)C(C)(C)C` [Compound V-D, (2S)-1-[(2S)-3,3-dimethyl-2-[(2S)-2-(methylamino)propanamido]butanoyl]-N-[(4R)-8-[(4R)-4-[(2S)-1-(2S)-3,3-dimethyl-2-[(2S)-2-(methylamino)propanamido]butanoyl]pyrrolidine-2-amido]-3,4-dihydro-2H-1-benzopyran-8-yl-3,4-dihydro-2H-1-benzopyran-4-yl]pyrrolidine-2-carboxamide], the pIC50 at XIAP-BIR3 was 7.00 to 8.00; on cIAP1-BIR3, 8.00 to 9.00; on cIAP2-BIR3, 7.00 to 8.00.

With `CN[C@@H](C)C(=O)N[C@H](C(=O)N1CCC[C@H]1C(=O)N[C@@H]1CCCc2c(OCCc3ccc(CCOc4cccc5c4CCC[C@H]5NC(=O)[C@@H]4CCCN4C(=O)[C@@H](NC(=O)[C@H](C)NC)C4CCCCC4)cc3)cccc21)C1CCCCC1` [Compound IV, (2S)-1-[(2S)-2-Cyclohexyl-2-[(2S)-2-(methylamino)propanamido]acetyl]-N-[(1R)-5-[2-[4-(2-[[(5R)-5-[(2S)-1-[(2S)-2-cyclohexyl-2-[(2S)-2-(methylamino)propanamido]acetyl]pyrrolidine-2-amido]-5,6,7,8-tetrahydronaphthalen-1-yl]oxy]ethyl)phenyl]ethoxy]-1,2,3,4-tetrahydronaphthalen-1-yl]pyrrolidine-2-carboxamide], the pIC50 at XIAP-BIR3 was 6.00 to 7.00; at cIAP1-BIR3, 7.00 to 8.00; on cIAP2-BIR3, 7.00 to 8.00.

As to `CN[C@@H](C)C(=O)N[C@H](C(=O)N1CCC[C@H]1C(=O)N[C@@H]1CCCc2c(OCCCCCOc3cccc4c3CCC[C@H]4NC(=O)[C@@H]3CCCN3C(=O)[C@@H](NC(=O)[C@H](C)NC)C3CCOCC3)cccc21)C1CCOCC1` [Compound I-A, (S)-1-((S)-2-((S)-2-(methylamino)propanamido)-2-(tetrahydro-2H-pyran-4-yl)acetyl)-N—((R)-5-((5-(((R)-5-((S)-1-((S)-2-((S)-2-(methylamino)propanamido)-2-(tetrahydro-2H-pyran-4-yl)acetyl)pyrrolidine-2-carboxamido)-5,6,7,8-tetrahydronaphthalen-1-yl)oxy)pentyl)oxy)-1,2,3,4-tetrahydmnaphthalen-1-yl)pyrrolidine-2-carboxamide], the pIC50 on XIAP-BIR3 was 7.00 to 8.00; on cIAP1-BIR3, 8.00 to 9.00; at cIAP2-BIR3 it was 8.00 to 9.00.

In the case of `CN[C@@H](C)C(=O)N[C@H](C(=O)N1CCC[C@H]1C(=O)N[C@@H]1CCCc2c(-c3cccc4c3CCC[C@H]4NC(=O)[C@@H]3CCCN3C(=O)[C@@H](NC(=O)[C@H](C)NC)C(C)C)cccc21)C(C)C` [Compound V-M, (2S)-1-[(2S)-3-methyl-2-[(2S)-2-(methylamino)propanamido]butanoyl]-N-[(5R,5′R)-5′-[(2S)-1-[(2S)-3-methy-2-[(2S)-2-(methylamino)propanamido]butanoyl]pyrolidine-2-amido]-5H,5′H,6H,6′H,7H,7′H,8H,8′H-[1,1′-binaphthalen]-5-yl]pyrrolidine-2-carboxamide], the negative-log IC50 (pIC50) at XIAP-BIR3 was 7.00 to 8.00; at cIAP1-BIR3, 8.00 to 9.00; on cIAP2-BIR3, 8.00 to 9.00.

Take `CN[C@@H](C)C(=O)N[C@H](C(=O)N1CCC[C@H]1C(=O)N[C@@H]1CCCc2cc(-c3ccc(-c4ccc5c(c4)CCC[C@H]5NC(=O)[C@@H]4CCCN4C(=O)[C@@H](NC(=O)[C@H](C)NC)C4CCCCC4)cc3)ccc21)C1CCCCC1` [Compound III-L, (2S)-1-[(2S)-2-cyclohexyl-2-[(2S)-2-(methylamino)propanamido]acetyl]-N-[(1R)-6-[4-[(5R)-5-[(2S)-1-[(2S)-2-cyclohexyl-2-[(2S)-2-(methylamino)propanamido]acetyl]pyrolidine-2-amido]-5,6,7,8-tetrahydronaphthalen-2-yl]phenyl]-1,2,3,4-tetrahydronaphthalen-1-yl]pyrrolidine-2-carboxamide]: the negative-log IC50 (pIC50) at XIAP-BIR3 is 6.00 to 7.00; at cIAP1-BIR3, 7.00 to 8.00; at cIAP2-BIR3, 6.00 to 7.00.

On to `CN[C@@H](C)C(=O)N[C@H](C(=O)N1CCC[C@H]1C(=O)N[C@@H]1CCCc2c(-c3cccc4c3CCC[C@H]4NC(=O)[C@@H]3CCCN3C(=O)[C@@H](NC(=O)[C@H](C)NC)C3CCOCC3)cccc21)C1CCOCC1` [Compound V-K, (S)-1-((S)-2-((S)-2-(methylamino)propanamido)-2-(tetrahydro-2H-pyran-4-yl)acetyl)-N-((5R,5′R)-5′-((S)-1-((S)-2-((S)-2-(methylamino)propanamido)-2-(tetrahydro-2H-pyran-4-yl)acetyl)pyrrolidine-2-carboxamido)-5,5′,6,6′,7,7′,8,8′-octahydro-[1,1′-binaphthalen]-5-yl)pyrrolidine-2-carboxamide], for which the values for the negative-log IC50 (pIC50) at XIAP-BIR3, on cIAP1-BIR3 and at cIAP2-BIR3 were 7.00 to 8.00, 8.00 to 9.00 and 7.00 to 8.00, respectively.

In the case of `CN[C@@H](C)C(=O)N[C@H](C(=O)N1CCC[C@H]1C(=O)N[C@@H]1CCCc2c(OC/C=C/COc3cccc4c3CCC[C@H]4NC(=O)[C@@H]3CCCN3C(=O)[C@@H](NC(=O)[C@H](C)NC)C3CCCCC3)cccc21)C1CCCCC1` [Compound IV-A, (2S)-1-[(2S)-2-Cyclohexyl-2-[(2S)-2-(methylamino)propanamido]acetyl]-N-[(1R)-5-[[(2E)-4-[[(5R)-5-[(2S)-1-[(2S)-2-cyclohexyl-2-[(2S)-2-(methylamino)propanamido]acetyl]pyrrolidine-2-amido]-5,6,7,8-tetrahydronaphthalen-1-yl]oxy]but-2-en-1-yl]oxy]-1,2,3,4-tetrahydronaphthalen-1-yl]pyrrolidine-2-carboxamide], the pIC50 on XIAP-BIR3 was 7.00 to 8.00; on cIAP1-BIR3, 8.00 to 9.00; at cIAP2-BIR3, 7.00 to 8.00.

As to `CN[C@@H](C)C(=O)N[C@H](C(=O)N1CCC[C@H]1C(=O)N[C@@H]1CCCc2c(-c3cccc4c3CCC[C@H]4NC(=O)[C@@H]3CCCN3C(=O)[C@@H](NC(=O)[C@H](C)NC)C3CCCCC3)cccc21)C1CCCCC1` [Compound V-N, (2S)-1-[(2S)-2-cyclohexyl-2-[(2S)-2-(methylamino)propanamido]acetyl]-N-[(1R)-5-[(5R)-5-[(2S)-1-[(2S)-2-cyclohexyl-2-[(2S)-2-(methylamino)propanamido]acetyl]pyrolidine-2-amido]-5,6,7,8-tetrahydronaphthalen-1-yl]-1,2,3,4-tetrahydronaphthalen-1-yl]pyrrolidine-2-carboxamide], the negative logarithm of the IC50 (pIC50) on XIAP-BIR3, at cIAP1-BIR3 and on cIAP2-BIR3 was 8.00 to 9.00 throughout.

As for `CN[C@@H](C)C(=O)N[C@H](C(=O)N1CCC[C@H]1C(=O)N[C@@H]1CCCc2c(OCCOCCOc3cccc4c3CCC[C@H]4NC(=O)[C@@H]3CCCN3C(=O)[C@@H](NC(=O)[C@H](C)NC)C3CCCCC3)cccc21)C1CCCCC1` [Compound II, (2S)-1-[(2S)-2-Cyclohexyl-2-[(2S)-2-(methylamino)propanamido]acetyl]-N-[(1R)-5-[2-(2-[[(5R)-5-[(2S)-1-[(2S)-2-cyclohexyl-2-[(2S)-2-(methylamino)propanamido]acetyl]pyrrolidine-2-amido]-5,6,7,8-tetrahydronaphthalen-1-yl]oxy]ethoxy)ethoxy]-1,2,3,4-tetrahydmnaphthalen-1-yl]pyrrolidine-2-carboxamide], the pIC50 was 7.00 to 8.00 on XIAP-BIR3, 8.00 to 9.00 at cIAP1-BIR3 and 8.00 to 9.00 on cIAP2-BIR3.
